Source: patent US9845321B2, “1,3-dihydro-2H-benzimidazol-2-one derivatives substituted with heterocycles as respiratory syncytial virus antiviral agents” (JANSSEN SCIENCES IRELAND UC, priority 2012, dated 2017)

Assays:
in vitro = assay type: cell-based; conditions: human
Method: (§1) Black 96-well clear-bottom microtiter plates (Corning, Amsterdam, The Netherlands) were filled in duplicate using a customized robot system with serial 4-fold dilutions of compound in a final volume of 50 μl culture medium [RPMI medium without phenol red, 10% FBS, 0.04% gentamycin (50 mg/ml) and 0.5% DMSO]. Then, 100 μl of a HeLa cell suspension (5×10^4 cells/ml) in culture medium was added to each well followed by the addition of 50 μl rgRSV224 (MOI=0.02) virus in culture medium using a multidrop dispenser (Thermo Scientific, Erembodegem, Belgium). rgRSV224 virus is an engineered virus that includes an additional GFP gene (Hallak et al, 2000) and was in-licensed from the NIH (Bethesda, Md., USA). Medium, virus- and mock-infected controls were included in each test. Cells were incubated at 37° C. in a 5% CO2 atmosphere. Three days post-virus exposure, viral replication was quantified by measuring GFP expression in the cells by a MSM laser microscope (Tibotec, Beerse, Belgium). The EC50 was defined as the 50% inhibitory concentration for GFP expression. In parallel, compounds were incubated for three days in a set of white 96-well microtitier plates (Corning) and the cytotoxicity of compounds in HeLa cells was determined by measuring the ATP content of the cells using the ATPlite kit (PerkinElmer, Zaventem, Belgium) according to the manufacturer's instructions. The CC50 was defined as the 50% concentration for cytotoxicity.

rgRSV224 virus = assay: Antiviral activity: rgRSV224 (GFP-expressing RSV) replication in HeLa cells, GFP expression measured three days post-virus exposure; assay type: cell-based; conditions: human respiratory syncytial virus, 72 h, read-out: WT activity pEC50 (converted)
Method: as §1

Compound | CC50 at 3 days (in vitro) [nM] | EC50 (rgRSV224 virus) [nM]
CC(C)(O)CN1CC(n2c(=O)n(Cc3cc4cc(Cl)ccc4n3CCCS(C)(=O)=O)c3cc(F)ccc32)C1 [Compound P12, 3-((5-chloro-1-(3(methylsulfonyl)propyl)-1H-indol-2-yl)methyl)-5-fluoro-1-(1-(2-hydroxy-2-methylpropyl)azetidin-3-yl)-1H-benzo[d]imidazol-2(3H)-one] | 12600 | 39.8
N#CCCCn1c(Cn2c(=O)n(-c3ccc(C(=O)O)cc3)c3ccncc32)cc2cc(Cl)ccc21 [Compound P52, 4-(3-((5-chloro-1-(3-cyanopropyl)-1H-indol-2-yl)methyl)-2-oxo-2,3-dihydro-1H-imidazo[4,5-c]pyridin-1-yl)benzoic acid] | > 25100 | 0.501
N#CCCCn1c(Cn2c(=O)n(-c3ccncc3)c3ccncc32)cc2cc(Cl)ccc21 [Compound P48, 4-(5-chloro-2-((2-oxo-1-(pyridin-4-yl)-1H-imidazo[4,5-c]pyridin-3(2H)-yl)methyl)-1H-indol-1-yl)butanenitrile] | > 100000 | 2.51
COc1ccc(-n2c(=O)n(Cc3nc4nc(Cl)ccc4n3CCC(C)C)c3cnccc32)cc1 [Compound P16, 3-((5-chloro-1-isopentyl-1H-imidazo[4,5-b]pyridin-2-yl)methyl)-1-(4-methoxyphenyl)-1H-imidazo[4,5-c]pyridin-2(3H)-one] | > 50100 | 1
COc1ccc(-n2c(=O)n(Cc3cc4cc(Cl)ccc4n3CCCC#N)c3cnccc32)c(F)c1 [Compound P45, 4-(5-chloro-2-((1-(2-fluoro-4-methoxyphenyl)-2-oxo-1H-imidazo[4,5-c]pyridin-3(2H)-yl)methyl)-1H-indol-1-yl)butanenitrile] | 15800 | 1
COc1ccc(-n2c(=O)n(Cc3cc4nc(Cl)ccc4n3CCCC(F)(F)F)c3cnccc32)cc1 [Compound P17, 3-((5-chloro-1-(4,4,4-trifluorobutyl)-1H-pyrrolo[3,2-b]pyridin-2-yl)-methyl)-1-(4-methoxyphenyl)-1H-imidazo[4,5-c]pyridin-2(3H)-one] | > 100000 | 10
COc1ccc(-n2c(=O)n(Cc3cc4cc(Cl)ccc4n3CCCC#N)c3cnccc32)cc1F [Compound P15, 4-(5-chloro-2-((1-(3-fluoro-4-methoxyphenyl)-2-oxo-1H-imidazo[4,5-c]pyridin-3(2H)-yl)methyl)-1H-indol-1-yl)butanenitrile] | > 100000 | 1
CC(C)CCn1c(Cn2c(=O)n(-c3ccncc3)c3ccncc32)nc2nc(Cl)ccc21 [Compound P23, 3-((5-chloro-1-isopentyl-1H-imidazo[4,5-b]pyridin-2-yl)methyl)-1-(pyridin-4-yl)-1H-imidazo[4,5-c]pyridin-2(3H)-one] | > 100000 | 7.94
CC(C)CCn1c(Cn2c(=O)n(C3(C)CC3)c3ccncc32)nc2nc(Cl)ccc21 [Compound P18, 3-((5-chloro-1-isopentyl-1H-imidazo[4,5-b]pyridin-2-yl)methyl)-1-(1-methylcyclopropyl)-1H-imidazo[4,5-c]pyridin-2(3H)-one] | > 100000 | 2
O=c1n(Cc2cc3cc(Cl)ccc3n2CCCCF)c2cnccc2n1-c1ccc2ncccc2c1 [Compound P31, 3-((5-chloro-1-(4-fluorobutyl)-1H-indol-2-yl)methyl)-1-(quinolin-6-yl)-1H-imidazo[4,5-c]pyridin-2(3H)-one] | > 100000 | 1.58
CC1(n2c(=O)n(Cc3nc4nc(Cl)ccc4n3CCCC(F)(F)F)c3cnccc32)CC1 [Compound P9, 3-((5-chloro-1-(4,4,4-trifluorobutyl)-1H-imidazo[4,5-b]pyridin-2-yl)methyl)-1-(1-methylcyclopropyl)-1H-imidazo[4,5-c]pyridin-2(3H)-one] | > 100000 | 1
N#CCCCn1c(Cn2c(=O)n(-c3ccc(C(=O)NC4CC4)cc3)c3ccncc32)cc2cc(Cl)ccc21 [Compound P53, 4-(3-((5-chloro-1-(3-cyanopropyl)-1H-indol-2-yl)methyl)-2-oxo-2,3-dihydro-1H-imidazo[4,5-c]pyridin-1-yl)-N-cyclopropylbenzamide] | 25100 | 0.501
N#CCCCn1c(Cn2c(=O)n(-c3ccc4ncccc4c3)c3ccncc32)cc2cc(Cl)ccc21 [Compound P43, 4-(5-chloro-2-((2-oxo-1-(quinolin-6-yl)-1H-imidazo[4,5-c]pyridin-3(2H)-yl)methyl)-1H-indol-1-yl)butanenitrile] | > 100000 | 0.398
CS(=O)(=O)CCCn1c(Cn2c(=O)n(C3CNC3)c3ccc(F)cc32)cc2cc(Cl)ccc21 [Compound P3, 1-(azetidin-3-yl)-3-((5-chloro-1-(3-(methylsulfonyl)propyl)-1H-indol-2-yl)methyl)-5-fluoro-1H-benzo[d]imidazol-2(3H)-one] | 12600 | 100
Cc1ccc(-n2c(=O)n(Cc3cc4cc(Cl)ccc4n3CCCC#N)c3cnccc32)cc1 [Compound P46, 4-(5-chloro-2-((2-oxo-1-p-tolyl-1H-imidazo[4,5-c]pyridin-3(2H)-yl)methyl)-1H-indol-1-yl)butanenitrile] | > 100000 | 1.26
CC1(n2c(=O)n(Cc3cc4cc(Cl)ccc4n3CCCS(C)(=O)=O)c3cnccc32)CC1 [Compound P7, 3-((5-chloro-1-(3-(methylsulfonyl)propyl)-1H-indol-2-yl)methyl)-1-(1-methylcyclopropyl)-1H-imidazo[4,5-c]pyridin-2(3H)-one] | 50100 | 0.501
N#CCCCn1c(Cn2c(=O)n(-c3ncccn3)c3ccncc32)cc2cc(Cl)ccc21 [Compound P21, 4-(5-chloro-2-((2-oxo-1-(pyrimidin-2-yl)-1H-imidazo[4,5-c]pyridin-3(2H)-yl)methyl)-1H-indol-1-yl)butanenitrile] | > 100000 | 6.31
CS(=O)(=O)c1ccc(-n2c(=O)n(Cc3cc4cc(Cl)ccc4n3CCCC#N)c3cnccc32)cc1 [Compound P41, 4-(5-chloro-2-((1-(4-(methylsulfonyl)phenyl)-2-oxo-1H-imidazo[4,5-c]pyridin-3(2H)-yl)methyl)-1H-indol-1-yl)butanenitrile] | > 100000 | 0.2
O=c1n(Cc2cc3cc(Cl)ccc3n2CCCCF)c2cnccc2n1-c1ccncc1 [Compound P44, 3-((5-chloro-1-(4-fluorobutyl)-1H-indol-2-yl)methyl)-1-(pyridin-4-yl)-1H-imidazo[4,5-c]pyridin-2(3H)-one] | > 100000 | 1
Cn1ccnc1-n1c(=O)n(Cc2cc3cc(Cl)ccc3n2CCCC#N)c2cnccc21 [Compound P33, 4-(5-chloro-2-((1-(1-methyl-1H-imidazol-2-yl)-2-oxo-1H-imidazo[4,5-c]pyridin-3(2H)-yl)methyl)-1H-indol-1-yl)butanenitrile] | > 100000 | 10
N#CCCCn1c(Cn2c(=O)n(-c3ccncc3F)c3ccncc32)cc2cc(Cl)ccc21 [Compound P42, 4-(5-chloro-2-((1-(3-fluoropyridin-4-yl)-2-oxo-1H-imidazo[4,5-c]pyridin-3(2H)-yl)methyl)-1H-indol-1-yl)butanenitrile] | > 100000 | 0.316
COc1ccc(-n2c(=O)n(Cc3cc4cc(Cl)ccc4n3CCCC#N)c3cnccc32)cc1 [Compound P14, 4-(5-chloro-2-((1-(4-methoxyphenyl)-2-oxo-1H-imidazo[4,5-c]pyridin-3(2H)-yl)methyl)-1H-indol-1-yl)butanenitrile] | 12600 | 0.398
COCCOc1ccc(-n2c(=O)n(Cc3cc4cc(Cl)ccc4n3CCCC#N)c3cnccc32)cc1 [Compound P28, 4-(5-chloro-2-((1-(4-(2-methoxyethoxy)phenyl)-2-oxo-1H-imidazo[4,5-c]pyridin-3(2H)-yl)methyl)-1H-indol-1-yl)butanenitrile] | > 100000 | 0.2
N#CCCCn1c(Cn2c(=O)n(-c3nccs3)c3ccncc32)cc2cc(Cl)ccc21 [Compound P49, 4-(5-chloro-2-((2-oxo-1-(thiazol-2-yl)-1H-imidazo[4,5-c]pyridin-3(2H)-yl)methyl)-1H-indol-1-yl)butanenitrile] | > 25100 | 6.31
N#CCCCn1c(Cn2c(=O)n(-c3ccc(OC(F)(F)F)cc3)c3ccncc32)cc2cc(Cl)ccc21 [Compound P29, 4-(5-chloro-2-((2-oxo-1-(4-(trifluoromethoxy)phenyl)-1H-imidazo[4,5-c]pyridin-3(2H)-yl)methyl)-1H-indol-1-yl)butanenitrile] | > 100000 | 1.26
COc1ccc(-n2c(=O)n(Cc3cc4cc(Cl)ccc4n3CCCC#N)c3cnccc32)c(OC)c1 [Compound P47, 4-(5-chloro-2-((1-(2,4-dimethoxyphenyl)-2-oxo-1H-imidazo[4,5-c]pyridin-3(2H)-yl)methyl)-1H-indol-1-yl)butanenitrile] | > 100000 | 1.58
N#CCCCn1c(Cn2c(=O)n(-c3ccncc3)c3ccc(F)cc32)cc2cc(Cl)ccc21 [Compound P40, 4-(5-chloro-2-((6-fluoro-2-oxo-3-(pyridin-4-yl)-2,3-dihydro-1H-benzo[d]imidazol-1-yl)methyl)-1H-indol-1-yl)butanenitrile] | > 100000 | 
